Data from PubChem BioAssay (NCI).
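Abbreviation: GI50, concentration required for 50% inhibition of growth. Definition used: TGI = concentration required for complete inhibition of growth.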

Columns and labels:
Experiment in all cases: growth of human tumour cells (NCI), 384-well format
OVCAR-5 ovarian = tested on: OVCAR-5 ovarian
LOX IMVI melanoma = tested on: LOX IMVI melanoma
NCI-H226 lung = tested on: NCI-H226 lung
HL-60(TB) leukemia = tested on: HL-60(TB) leukemia
HCT-116 colon = tested on: HCT-116 colon
MOLT-4 leukemia = tested on: MOLT-4 leukemia
HS 578T breast = tested on: HS 578T breast
RXF 393 renal = tested on: RXF 393 renal
SN12C renal = tested on: SN12C renal
HCT-15 colon = tested on: HCT-15 colon
ACHN renal = tested on: ACHN renal
TK-10 renal = tested on: TK-10 renal
HOP-92 NSCLC = tested on: HOP-92 NSCLC
NCI/ADR-RES ovarian = tested on: NCI/ADR-RES ovarian
M14 melanoma = tested on: M14 melanoma
OVCAR-4 ovarian = tested on: OVCAR-4 ovarian
PC-3 prostate = tested on: PC-3 prostate
CCRF-CEM leukemia = tested on: CCRF-CEM leukemia
CAKI-1 renal = tested on: CAKI-1 renal
OVCAR-3 ovarian = tested on: OVCAR-3 ovarian
BT-549 breast = tested on: BT-549 breast
HOP-62 NSCLC = tested on: HOP-62 NSCLC
HT29 colon = tested on: HT29 colon
K-562 leukemia = tested on: K-562 leukemia
MDA-MB-468 breast = tested on: MDA-MB-468 breast
SF-268 CNS = tested on: SF-268 CNS
SW-620 colon = tested on: SW-620 colon
SK-MEL-28 melanoma = tested on: SK-MEL-28 melanoma
IGROV1 ovarian = tested on: IGROV1 ovarian
786-0 renal = tested on: 786-0 renal

Cc1cc2cc(Oc3ccnc(Nc4cccc(CS(=O)(=O)NCCN(C)C)c4)n3)ccc2[nH]1
GI50 (OVCAR-5 ovarian): 3.81 µM
TGI (OVCAR-5 ovarian): 13.1 µM
GI50 (LOX IMVI melanoma): 1.93 µM
TGI (LOX IMVI melanoma): 4.2 µM
GI50 (NCI-H226 lung): 1.95 µM
TGI (NCI-H226 lung): 12.5 µM
GI50 (HL-60(TB) leukemia): 2.45 µM
TGI (HL-60(TB) leukemia): 5.63 µM
GI50 (HCT-116 colon): 3.29 µM
TGI (HCT-116 colon): 11.8 µM
GI50 (MOLT-4 leukemia): 1.8 µM
TGI (MOLT-4 leukemia): 3.24 µM
GI50 (HS 578T breast): 1.69 µM
TGI (HS 578T breast): 5.72 µM
GI50 (RXF 393 renal): 1.83 µM
TGI (RXF 393 renal): 4.32 µM
GI50 (SN12C renal): 3.66 µM
TGI (SN12C renal): 13.2 µM
GI50 (HCT-15 colon): 5.47 µM
TGI (HCT-15 colon): 16.7 µM
GI50 (ACHN renal): 6.45 µM
TGI (ACHN renal): 19 µM
GI50 (TK-10 renal): 8.76 µM
TGI (TK-10 renal): 21.2 µM
GI50 (HOP-92 NSCLC): 2.51 µM
TGI (HOP-92 NSCLC): 7.51 µM
GI50 (NCI/ADR-RES ovarian): 15.3 µM
TGI (NCI/ADR-RES ovarian): 28.8 µM
GI50 (M14 melanoma): 3.38 µM
TGI (M14 melanoma): 7.81 µM
GI50 (OVCAR-4 ovarian): 12 µM
TGI (OVCAR-4 ovarian): 24.4 µM
GI50 (PC-3 prostate): 4.19 µM
TGI (PC-3 prostate): 14.9 µM
GI50 (CCRF-CEM leukemia): 1.96 µM
TGI (CCRF-CEM leukemia): 3.65 µM
GI50 (CAKI-1 renal): 3.61 µM
TGI (CAKI-1 renal): 13.9 µM
GI50 (OVCAR-3 ovarian): 6.2 µM
TGI (OVCAR-3 ovarian): 18 µM
GI50 (BT-549 breast): 2.19 µM
TGI (BT-549 breast): 7.26 µM
GI50 (HOP-62 NSCLC): 7.38 µM
TGI (HOP-62 NSCLC): 20.2 µM
GI50 (HT29 colon): 2.4 µM
TGI (HT29 colon): 6.03 µM
GI50 (K-562 leukemia): 1.27 µM
TGI (K-562 leukemia): 2.59 µM
GI50 (MDA-MB-468 breast): 3.19 µM
TGI (MDA-MB-468 breast): 7.85 µM
GI50 (SF-268 CNS): 3.93 µM
TGI (SF-268 CNS): 14.1 µM
GI50 (SW-620 colon): 11.1 µM
TGI (SW-620 colon): 23.3 µM
GI50 (SK-MEL-28 melanoma): 4.58 µM
TGI (SK-MEL-28 melanoma): 12.4 µM
GI50 (IGROV1 ovarian): 3.05 µM
TGI (IGROV1 ovarian): 9.84 µM
GI50 ([…]-0 renal): 3.36 µM
TGI (786-0 renal): 11.9 µM
